Converted amounts (≈) assume the structure as drawn. Like-named read-outs stand apart in the source and are kept apart here. One block for each compound: values may come before it. Where a SMILES comes first, the peptide text is derived from it. Where no end group is shown, it is not given here. [ ]: non-standard residue; d: D form.
Tests used:
[1] = system: C. acnes strains (C2, C5, PJI2, PJI8); assay: microbe, parasite or virus in culture
Procedure: (§1) C. acnes strains were isolated on Columbia agar containing 5% sheep blood (BioRad, Hercules, California, USA) and cultivated in Brain Heart Infusion (BHI) broth (BioRad, Hercules, California, USA) for 5 days, under anaerobic conditions using the GenBox system (Biomérieux, Marcy l’Etoile, France), at 37°C. For all assays, one colony of isolated C. acnes strains was inoculated in a 1.5 mL vial containing 1.5 mL of BHI. After 5–6 days of incubation (stationary phase reached after 4 days) at 37°C, the absorbance (at 600 nm) of the bacterial culture was adjusted to 1. The bacterial suspension was then diluted in BHI broth at 1/100 (OD: 0.01) and 1 mL of this suspension was inoculated in each well of 24- or 48-well plates.
(§2) Peptides were added to a 48-well plate at the desired concentrations in BHI medium and diluted bacteria were inoculated as described in the “Bacterial Strain Culture” section. Plates were incubated at 37°C, under anaerobic conditions using the GenBox system, for 5–6 days. The effect of the peptide on planktonic growth was determined by measuring the MIC which was defined as the concentration in the well containing the minimal amount of compound that leads to the absence of visible bacterial growth, according to Wiegand et al. ([38]). […] Finally, 48-well plates containing cultures with or without peptides were washed three times with water to remove unattached bacteria. Adhered bacteria were stained with 1 mL of 0.2% crystal violet for 20 min, then washed with water, and crystal violet was extracted with 95% ethanol (vol/vol). The quantity of biofilm (biomass) was analyzed by measuring the absorbance of the crystal violet suspension at 595 nm using the SpectroStar nano spectrophotometer (BMG Labtech, Ortenberg, Germany). The Minimal Biofilm Inhibition Concentration (MBIC) was defined as the concentration in the well containing the minimal quantity of peptide where the crystal violet absorbance, corrected by the blank, was null. Experiments were performed three independent times in technical duplicate for each strain.

[2] = system: C. acnes strains (C2, C5, PJI2, PJI8)
Procedure: as §1, §2

Compound: CC[C@@H](C)[C@@H](NC(=O)[C@@H](CCCNC(=N)N)NC(=O)[C@@H](CCCNC(=N)N)NC(=O)[C@@H](Cc1c[nH]c2ccccc12)NC(=O)[C@@H](CCC(N)=O)NC(=O)[C@H](N)C(C)C)C(=O)N[C@@H](C(=O)N[C@@H](C(=O)N[C@H](CCCNC(=N)N)C(=O)N[C@@H](C(=O)N[C@@H](C(=O)N[C@H](CCCNC(=N)N)C(N)=O)[C@H](C)CC)C(C)C)C(C)C)[C@H](C)CC [AB008-D] (H-[dV][dQ][dW][dR][dR][dI][dI][dV][dR][dV][dI][dR]-NH2)
MBC ([1]; strains (C2, C5, PJI2, PJI8)): >64 µg/mL | MBIC ([2]; strains (C2, C5, PJI2, PJI8)): 32 µg/mL

Compound: CO[C@H]1/C=C/O[C@@]2(C)Oc3c(C)c(O)c4c(O)c(c(/C=N/N5CCN(C)CC5)c(O)c4c3C2=O)NC(=O)/C(C)=C\C=C\[C@H](C)[C@H](O)[C@@H](C)[C@@H](O)[C@@H](C)[C@H](OC(C)=O)[C@@H]1C [Rifampicin, rifampicin, reference compound]
MIC ([1]; Cutibacterium acnes): 0.008 µg/mL (≈ 9.72 nM) | MBC ([1]; Cutibacterium acnes, strain C2, n=3): > 0.064 µg/mL | MBC ([1]; Cutibacterium acnes, strain C5, n=3): > 0.064 µg/mL | MBC ([1]; Cutibacterium acnes, strain PJI2, n=3): > 0.064 µg/mL | MBC ([1]; Cutibacterium acnes, strain PJI8, n=3): 0.008 to 0.016 µg/mL (≈ 9.72 to 19.4 nM) | MIC ([1]; strain C5, n=3): 0.008 µg/mL (≈ 9.72 nM) | MIC ([1]; strain PJI2, n=3): 0.008 µg/mL (≈ 9.72 nM) | MIC ([1]; strain PJI8, n=3): 0.008 µg/mL (≈ 9.72 nM) | MBIC ([2]; strain C2, n=3): 0.002 to 0.004 µg/mL | MBIC ([2]; strain C5, n=3): 0.008 µg/mL | MBIC ([2]; strain PJI2, n=3): 0.004 to 0.008 µg/mL | MBIC ([2]; strain PJI8, n=3): 0.008 µg/mL

Compound: VRLIVAVRIWRR-NH2 [Peptide 1018, reference compound]
MIC ([1]; strain C2, BHI, anaerobic, 37°C, 5–6 days, n = 3 (n = 2 for 1018, AB008-D)): >64 µg/mL | MBC ([1]; strain C2, no colonies on blood agar after 5–6 days anaerobic, n = 3 (n = 2 for 1018, AB008-D)): >64 µg/mL | MIC ([1]; strain C5, BHI, anaerobic, 37°C, 5–6 days, n = 3 (n = 2 for 1018, AB008-D)): >64 µg/mL | MBC ([1]; strain C5, no colonies on blood agar after 5–6 days anaerobic, n = 3 (n = 2 for 1018, AB008-D)): >64 µg/mL | MIC ([1]; strain PJI2, BHI, anaerobic, 37°C, 5–6 days, n = 3 (n = 2 for 1018, AB008-D)): >64 µg/mL | MBC ([1]; strain PJI2, no colonies on blood agar after 5–6 days anaerobic, n = 3 (n = 2 for 1018, AB008-D)): >64 µg/mL | MIC ([1]; strain PJI8, BHI, anaerobic, 37°C, 5–6 days, n = 3 (n = 2 for 1018, AB008-D)): >64 µg/mL | MBC ([1]; strain PJI8, no colonies on blood agar after 5–6 days anaerobic, n = 3 (n = 2 for 1018, AB008-D)): >64 µg/mL | MBIC ([2]; strain C2, crystal violet absorbance 595 nm null, n = 3 (n = 2 for 1018, AB008-D)): 32 µg/mL | MBIC ([2]; strain C5, crystal violet absorbance 595 nm null, n = 3 (n = 2 for 1018, AB008-D)): 32 µg/mL | MBIC ([2]; strain PJI2, crystal violet absorbance 595 nm null, n = 3 (n = 2 for 1018, AB008-D)): 32 µg/mL | MBIC ([2]; strain PJI8, crystal violet absorbance 595 nm null, n = 3 (n = 2 for 1018, AB008-D)): 32 µg/mL

Other lines, results leading:

MICs ([1]; strains (C2, C5, PJI2, PJI8)): 16 to 32 µg/mL
Compound: CC[C@@H](C)[C@@H](NC(=O)[C@@H](CCCNC(=N)N)NC(=O)[C@@H](CCCNC(=N)N)NC(=O)[C@@H](Cc1c[nH]c2ccccc12)NC(=O)[C@@H](CCC(N)=O)NC(=O)[C@H](N)C(C)C)C(=O)N[C@H](CC(C)C)C(=O)N[C@@H](C(=O)N[C@H](CCCNC(=N)N)C(=O)N[C@@H](C(=O)N[C@@H](C(=O)N[C@H](CCCNC(=N)N)C(N)=O)[C@H](C)CC)C(C)C)C(C)C [AB009-D] (H-[dV][dQ][dW][dR][dR][dI][dL][dV][dR][dV][dI][dR]-NH2)

MICs ([1]; strains (C2, C5, PJI2, PJI8)): 16 to 32 µg/mL
Compound: CC[C@@H](C)[C@@H](NC(=O)[C@@H](CCCNC(=N)N)NC(=O)[C@H](N)CCCCN)C(=O)N[C@H](CCCNC(=N)N)C(=O)N[C@H](Cc1c[nH]c2ccccc12)C(=O)N[C@@H](C(=O)N[C@@H](C(=O)N[C@H](CC(C)C)C(=O)N[C@H](CCCNC(=N)N)C(=O)N[C@@H](C(=O)N[C@@H](C(=O)N[C@H](CCCNC(=N)N)C(N)=O)[C@H](C)CC)C(C)C)[C@H](C)CC)C(C)C [AB101-D] (H-[dK][dR][dI][dR][dW][dV][dI][dL][dR][dV][dI][dR]-NH2)

MICs ([1]; strains (C2, C5, PJI2, PJI8)): 16 to 32 µg/mL
Compound: CC[C@@H](C)[C@@H](NC(=O)[C@@H](C)NC(=O)[C@@H](CCCNC(=N)N)NC(=O)[C@@H](Cc1c[nH]c2ccccc12)NC(=O)[C@@H](CCC(N)=O)NC(=O)[C@H](N)C(C)C)C(=O)N[C@H](CCCNC(=N)N)C(=O)N[C@@H](C(=O)N[C@H](CCCNC(=N)N)C(=O)N[C@@H](C(=O)N[C@@H](C(=O)N[C@H](CCCNC(=N)N)C(N)=O)[C@H](C)CC)C(C)C)C(C)C [DJK5, reference compound] (H-[dV][dQ][dW][dR][dA][dI][dR][dV][dR][dV][dI][dR]-NH2)

Source: publication PMC12053997, “D-enantiomeric antibiofilm peptides effective against anaerobic Cutibacterium acnes biofilm” (Microbiology Spectrum, 2025)
